Results as given in ChEMBL document CHEMBL4033683, “Dual functional small molecule fluorescent probes for image-guided estrogen receptor-specific targeting coupled potent antiproliferative potency for breast cancer therapy” (Bioorg Med Chem, 2017).
Calls of active or inactive are those of the source. The rule behind the calls is not given here.

What was measured:
MDA-MB-231 = assay: Antiproliferative activity against human MDA-MB-231 cells after 72 hrs by MTT assay; format: functional, cell-based; settings: MDA-MB-231, 72 h
MDA-MB-453 = assay: Antiproliferative activity against human MDA-MB-453 cells after 72 hrs by MTT assay; format: functional, cell-based; settings: MDA-MB-453, 72 h
MCF7 = assay: cells; settings: Homo sapiens, MCF7, 72 h
[1] = molecular target: T1, Estrogen receptor (Homo sapiens) (UniProt P03372); assay: Agonist activity at ERalpha (unknown origin) expressed in HEK293T cells after 24 hrs by luciferase reporter gene assay; format: cell-based
T1 sequence (whole entry): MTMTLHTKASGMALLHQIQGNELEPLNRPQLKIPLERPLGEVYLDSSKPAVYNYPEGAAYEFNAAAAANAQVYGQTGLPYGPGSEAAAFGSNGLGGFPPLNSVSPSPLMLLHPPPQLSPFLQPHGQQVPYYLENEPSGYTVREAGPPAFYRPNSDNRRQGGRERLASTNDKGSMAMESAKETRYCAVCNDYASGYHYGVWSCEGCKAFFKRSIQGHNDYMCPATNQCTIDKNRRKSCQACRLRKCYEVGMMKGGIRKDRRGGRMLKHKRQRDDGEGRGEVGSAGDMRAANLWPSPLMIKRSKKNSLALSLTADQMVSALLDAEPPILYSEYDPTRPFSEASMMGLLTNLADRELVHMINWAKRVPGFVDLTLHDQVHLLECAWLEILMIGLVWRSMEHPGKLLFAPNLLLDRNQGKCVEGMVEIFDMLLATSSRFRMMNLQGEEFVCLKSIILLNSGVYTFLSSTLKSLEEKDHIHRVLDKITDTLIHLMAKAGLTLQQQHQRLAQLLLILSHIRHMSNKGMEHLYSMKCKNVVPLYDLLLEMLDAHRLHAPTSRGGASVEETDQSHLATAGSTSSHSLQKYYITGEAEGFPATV

[2] = molecular target: T1, Estrogen receptor (Homo sapiens); assay: Antagonist activity at ERalpha (unknown origin) expressed in HEK293T cells assessed as inhibition of estradiol-induced response after 24 hrs by luciferase reporter gene assay relative to estradiol; format: cell-based
Estrogen receptor = molecular target: T2, Estrogen receptor (Homo sapiens, UniProt P03372); assay: Antagonist activity at ERalpha (unknown origin) expressed in HEK293T cells assessed as inhibition of estradiol-induced response after 24 hrs by luciferase reporter gene assay; format: cell-based
T2 sequence (P03372 whole entry): T1 sequence (whole entry)

Estrogen receptor beta [3] = molecular target: T3, Estrogen receptor beta (Homo sapiens, UniProt Q92731); assay: Agonist activity at ERbeta (unknown origin) expressed in HEK293T cells after 24 hrs by luciferase reporter gene assay relative to estradiol; format: cell-based
T3 sequence (Q92731 whole entry): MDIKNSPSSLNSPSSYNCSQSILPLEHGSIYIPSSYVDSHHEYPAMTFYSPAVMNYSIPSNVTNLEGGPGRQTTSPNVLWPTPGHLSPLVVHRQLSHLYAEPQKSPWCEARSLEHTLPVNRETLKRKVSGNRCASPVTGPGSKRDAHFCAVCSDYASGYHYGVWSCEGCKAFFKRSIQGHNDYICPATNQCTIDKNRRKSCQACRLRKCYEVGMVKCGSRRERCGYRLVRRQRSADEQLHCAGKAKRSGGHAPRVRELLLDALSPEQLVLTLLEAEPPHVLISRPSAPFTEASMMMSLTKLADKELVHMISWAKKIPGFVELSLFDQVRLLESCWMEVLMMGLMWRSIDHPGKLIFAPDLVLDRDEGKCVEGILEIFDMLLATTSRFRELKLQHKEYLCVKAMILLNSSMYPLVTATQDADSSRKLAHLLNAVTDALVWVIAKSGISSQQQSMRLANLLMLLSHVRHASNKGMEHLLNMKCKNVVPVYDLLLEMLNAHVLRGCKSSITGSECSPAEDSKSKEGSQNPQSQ

Estrogen receptor beta [4] = molecular target: T3, Estrogen receptor beta; assay: Agonist activity at ERbeta (unknown origin) expressed in HEK293T cells after 24 hrs by luciferase reporter gene assay; format: cell-based
Homo sapiens [5] = organism: Homo sapiens; assay: Binding affinity to ER in human MCF7 cells at 10 uM preincubated for 2 hrs followed by estradiol addition measured after 10 mins by confocal laser scanning microscopic method; format: cell-based
Homo sapiens [6] = organism: Homo sapiens; assay: Binding affinity to ER in human MCF7 cells at 1 uM up to 4 mins by real time imaging analysis; format: cell-based
Estrogen receptor beta [7] = molecular target: T3, Estrogen receptor beta; assay: Binding affinity to ERbeta (unknown origin) at 1 uM by fluorescence assay
Homo sapiens [8] = organism: Homo sapiens; assay: Binding affinity to ER in human MCF7 cells assessed as increase in fluorescence in cytosol at 1 uM up to 4 mins by real time imaging analysis; format: cell-based
Homo sapiens [9] = organism: Homo sapiens; assay: Binding affinity to ER in human MCF7 cells assessed as increase in fluorescence in nucleus at 1 uM up to 4 mins by real time imaging analysis; format: cell-based
Homo sapiens [10] = organism: Homo sapiens; assay: Binding affinity to ER in human MCF7 cells assessed as increase in fluorescence in nucleus at 10 uM after 2 hrs by confocal laser scanning microscopic method; format: cell-based
[11] = molecular target: T1, Estrogen receptor (Homo sapiens); assay: Binding affinity to ERalpha (unknown origin) at 1 uM in presence of estradiol by fluorescence assay
Homo sapiens [12] = organism: Homo sapiens; assay: Binding affinity to ER in human MCF7 cells assessed as increase in fluorescence in cytosol at 10 uM after 2 hrs by confocal laser scanning microscopic method; format: cell-based
[13] = Drug uptake in cytosol of human MCF7 cells at 1 uM up to 4 mins by real time fluorescence imaging analysis; format: ADME
[14] = Drug uptake in nucleus of human MCF7 cells at 1 uM up to 4 mins by real time fluorescence imaging analysis; format: ADME
[15] = Drug uptake in human MDA-MB-231 cells at 10 uM after 2 hrs by confocal laser scanning microscopic method; format: ADME, cell-based; settings: mda-mb-231, 2 h
Estrogen receptor beta [16] = molecular target: T3, Estrogen receptor beta; assay: Binding affinity to ERbeta (unknown origin) at 1 uM in presence of estradiol by fluorescence assay
[17] = molecular target: T1, Estrogen receptor (Homo sapiens); assay: Binding affinity to ERalpha (unknown origin) at 1 uM by fluorescence assay

| SMILES | IC50 (MDA-MB-231) [µM] | IC50 (MDA-MB-453) [µM] | IC50 (MCF7) [µM] | Activity [1] | Efficacy [2] [%] | IC50 (Estrogen receptor) [µM] | Efficacy (Estrogen receptor beta [3]) [%] | EC50 (Estrogen receptor beta [4]) [µM] | also measured |
| --- | --- | --- | --- | --- | --- | --- | --- | --- | --- |
| CCc1c(-c2ccc(O)c(F)c2)c(=O)oc2cc(O)ccc12 | 48.6 | 39.8 | 50 | inactive | – | – | – | – | – |
| O=c1oc2cc(O)ccc2c(-c2ccc(O)c(F)c2)c1-c1ccc(O)c(F)c1 | > 100 | 31.7 | 40.1 | inactive | 57.8 | 0.219 | -11.2 | – | – |
| O=c1oc2cc(O)ccc2c(-c2ccc(O)cc2)c1-c1ccc(O)cc1 | 59.8 | 29.1 | 49 | – | 15.2 | 0.222 | 33.4 | 0.012 | – |
| CCc1c(-c2ccc(O)cc2F)c(=O)oc2cc(O)ccc12 | > 100 | 8.03 | 16.1 | inactive | 26.4 | 0.012 | -6.9 | – | Activity (Homo sapiens [5]): inactive; Activity (Homo sapiens [6]): Active; Activity (Estrogen receptor beta [7]): Active; Activity (Homo sapiens [8]): Active; Activity (Homo sapiens [9]): Active; Activity (Homo sapiens [10]): Active; Activity [11]: inactive; Activity (Homo sapiens [12]): Active; Drug uptake [13]: Not Active; Drug uptake [14]: Not Active; Drug uptake [15]: Not Active; Activity (Estrogen receptor beta [16]): inactive; Activity [17]: Active |
| Cc1c(-c2ccc(O)cc2Cl)c(=O)oc2cc(O)ccc12 | 46.1 | 26.7 | 21.6 | inactive | 84.6 | 1.24 | 12.9 | 0.894 | – |
| C[C@]12CC[C@@H]3c4ccc(O)cc4CC[C@H]3[C@@H]1CC[C@@]2(O)C#Cc1ccc(CNC(=O)c2ccc(-c3c4ccc(=O)cc-4oc4cc(O)ccc34)c(C(=O)O)c2)cc1 | – | – | – | – | – | – | – | – | Activity (Homo sapiens [6]): inactive; Drug uptake [15]: Active |
| O=c1oc2cc(O)ccc2cc1-c1ccc(O)c(F)c1 | > 100 | > 100 | > 100 | inactive | 124 | – | 66.7 | 0.207 | – |
| Cc1cc(O)ccc1-c1c(C)c2ccc(O)cc2oc1=O | > 100 | 55.3 | > 100 | inactive | 65.3 | 0.112 | 72.1 | 0.011 | – |
| O=c1oc2cc(O)ccc2cc1-c1ccc(O)cc1 | > 100 | > 100 | > 100 | inactive | 101 | – | 138 | 0.542 | – |
| CCC(=C(c1ccc(O)cc1)c1ccc(OCCN(C)C)cc1)c1ccccc1 | 20.1 | 10.4 | – | – | – | – | – | – | – |
| CCc1c(-c2ccc(O)cc2Cl)c(=O)oc2cc(O)ccc12 | > 100 | 37.2 | 49.3 | inactive | 120 | – | 68.2 | 0.343 | Activity (Homo sapiens [5]): inactive; Activity (Estrogen receptor beta [7]): Active; Activity (Homo sapiens [10]): Active; Activity [11]: inactive; Activity (Homo sapiens [12]): Active; Drug uptake [15]: Not Active; Activity (Estrogen receptor beta [16]): inactive; Activity [17]: Active |
